Experimental data from the supplement of paper PMC10307832.

compound: Cc1ccc2nc(NCCN)c3ncc(C)n3c2c1 + O=C(CCCCCCC(=O)Nc1ccccc1)NO [Vorinostat] (partner 1 µM); assay: relative viability (nuclei count vs DMSO), 5 days (fraction); higher = more cells survive; details: first compound 0.04 µM
Outline: (§1)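 Cells from lung cancer lines were seeded into 1536-well plates and, one day later, dosed by pin tool. Treatments were either a single drug or a fixed dose of an anchor drug with five library-drug doses (not always all listed) in √10 steps. After 5 days, nuclei were stained in a one-step fixation (final 0.05% Triton X-100, 1% formaldehyde, 1 ug/ml Hoechst) and counted on 4× images, and relative viability is the treated-to-vehicle nuclei ratio, as the median of duplicate plates.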

Cell Line | relative viability
BEN | 0.544
HARA | 0.473
NCI-H322M | 0.991
LCLC-97TM1 | 0.865
NCI-H2009 | 0.7
A-427 | 0.9
NCI-H441 | 0.925
NCI-H661 | 0.752
NCI-H1734 | 0.816
NCI-H460 | 0.74
NCI-H2347 | 0.577
SK-LU-1 | 0.851
NCI-H1395 | 0.891
201T | 0.969
NCI-H1915 | 0.515
HCC-827 | 0.851

Cell Line | relative viability
LXF-289 | 0.765
NCI-H23 | 0.759
NCI-H647 | 0.691
CAL-12T | 0.77
NCI-H1651 | 0.639
EPLC-272H | 0.564
NCI-H2228 | 0.639
NCI-H1355 | 0.721
NCI-H3122 | 1.13
NCI-H1437 | 0.752
NCI-H1755 | 0.806
NCI-H2023 | 0.682
HCC-15 | 0.852
PC-14 | 0.766
EKVX | 0.835
LC-2-ad | 0.724

same assay, conditions: first compound 0.1265 µM

Cell Line | relative viability
BEN | 0.579
HARA | 0.648
SW 900 | 0.517
NCI-H322M | 0.86
LCLC-97TM1 | 0.867
NCI-H2009 | 0.736
A-427 | 0.844
NCI-H441 | 0.822
NCI-H661 | 0.778
NCI-H1734 | 0.824
NCI-H460 | 0.7
NCI-H2347 | 0.614
SK-LU-1 | 0.725
NCI-H1395 | 0.765
201T | 0.975
NCI-H1915 | 0.506
HCC-827 | 0.793

Cell Line | relative viability
LXF-289 | 0.639
NCI-H23 | 0.654
NCI-H647 | 0.384
CAL-12T | 0.711
NCI-H1651 | 0.558
EPLC-272H | 0.406
NCI-H2228 | 0.589
NCI-H1355 | 0.599
NCI-H3122 | 1.28
NCI-H1437 | 0.813
NCI-H1755 | 0.899
NCI-H2023 | 0.689
HCC-15 | 0.873
PC-14 | 0.693
EKVX | 0.676
LC-2-ad | 0.689

same assay, conditions: first compound 0.4 µM

Cell Line | relative viability
BEN | 0.505
HARA | 0.422
SW 900 | 0.415
NCI-H322M | 0.957
LCLC-97TM1 | 0.526
NCI-H2009 | 0.72
A-427 | 0.852
NCI-H441 | 0.848
NCI-H661 | 0.748
NCI-H1734 | 0.637
NCI-H460 | 0.708
NCI-H2347 | 0.526
SK-LU-1 | 0.784
NCI-H1395 | 0.662
201T | 0.887
NCI-H1915 | 0.422
HCC-827 | 0.872

Cell Line | relative viability
LXF-289 | 0.795
NCI-H23 | 0.501
NCI-H647 | 0.571
CAL-12T | 0.882
NCI-H1651 | 0.564
EPLC-272H | 0.279
NCI-H2228 | 0.858
NCI-H1355 | 0.633
NCI-H3122 | 1.01
NCI-H1437 | 0.771
NCI-H1755 | 0.728
NCI-H2023 | 0.568
HCC-15 | 0.78
PC-14 | 0.763
EKVX | 0.603
LC-2-ad | 0.652

same assay, conditions: first compound 1.265 µM

Cell Line | relative viability
BEN | 0.636
HARA | 0.499
SW 900 | 0.421
NCI-H322M | 1
LCLC-97TM1 | 0.759
NCI-H2009 | 0.709
A-427 | 0.876
NCI-H441 | 0.806
NCI-H661 | 0.785
NCI-H1734 | 0.733
NCI-H460 | 0.683
NCI-H2347 | 0.672
SK-LU-1 | 0.856
NCI-H1395 | 0.651
201T | 1.05
NCI-H1915 | 0.555
HCC-827 | 0.857

Cell Line | relative viability
LXF-289 | 0.629
NCI-H23 | 0.493
NCI-H647 | 0.492
CAL-12T | 0.65
NCI-H1651 | 0.539
EPLC-272H | 0.374
NCI-H2228 | 0.595
NCI-H1355 | 0.634
NCI-H3122 | 1.05
NCI-H1437 | 0.667
NCI-H1755 | 0.696
NCI-H2023 | 0.682
HCC-15 | 0.78
PC-14 | 0.718
EKVX | 0.752
LC-2-ad | 0.69

same assay, conditions: first compound 4 µM

Cell Line | relative viability
BEN | 0.555
HARA | 0.426
SW 900 | 0.487
NCI-H322M | 1.09
LCLC-97TM1 | 0.737
NCI-H2009 | 0.617
A-427 | 0.89
NCI-H441 | 0.731
NCI-H661 | 0.834
NCI-H1734 | 0.77
NCI-H460 | 0.631
NCI-H2347 | 0.729
SK-LU-1 | 0.734
NCI-H1395 | 0.56
201T | 1.02
NCI-H1915 | 0.454
HCC-827 | 0.81

Cell Line | relative viability
LXF-289 | 0.806
NCI-H23 | 0.578
NCI-H647 | 0.328
CAL-12T | 0.629
NCI-H1651 | 0.483
EPLC-272H | 0.415
NCI-H2228 | 0.544
NCI-H1355 | 0.671
NCI-H3122 | 1.37
NCI-H1437 | 0.653
NCI-H1755 | 0.857
NCI-H2023 | 0.638
HCC-15 | 0.744
PC-14 | 0.567
EKVX | 0.737
LC-2-ad | 0.689

compound: Cc1ccc2nc(NCCN)c3ncc(C)n3c2c1 + Cc1nc(Nc2ncc(C(=O)Nc3c(C)cccc3Cl)s2)cc(N2CCN(CCO)CC2)n1 [Dasatinib] (partner 0.075 µM); assay: as above; details: first compound 0.04 µM
Outline: as §1

Cell Line | relative viability
BEN | 0.329
HARA | 0.295
SW 900 | 0.419
NCI-H322M | 0.251
LCLC-97TM1 | 0.941
NCI-H2009 | 0.391
A-427 | 0.682
NCI-H441 | 0.556
NCI-H661 | 0.927
NCI-H1734 | 0.515
NCI-H460 | 0.448
NCI-H2347 | 0.32
SK-LU-1 | 0.162
NCI-H1395 | 0.48
201T | 0.56
NCI-H1915 | 0.334
HCC-827 | 0.33

Cell Line | relative viability
LXF-289 | 0.262
NCI-H23 | 0.934
NCI-H647 | 0.172
CAL-12T | 0.34
NCI-H1651 | 0.472
EPLC-272H | 0.414
NCI-H2228 | 0.496
NCI-H1355 | 0.712
NCI-H3122 | 0.78
NCI-H1437 | 0.379
NCI-H1755 | 0.475
NCI-H2023 | 0.711
HCC-15 | 0.703
PC-14 | 0.285
EKVX | 0.523
LC-2-ad | 0.701

same assay, conditions: first compound 0.1265 µM

Cell Line | relative viability
BEN | 0.291
HARA | 0.282
SW 900 | 0.759
NCI-H322M | 0.267
LCLC-97TM1 | 0.816
NCI-H2009 | 0.284
A-427 | 0.654
NCI-H441 | 0.552
NCI-H661 | 0.943
NCI-H1734 | 0.456
NCI-H460 | 0.546
NCI-H2347 | 0.333
SK-LU-1 | 0.202
NCI-H1395 | 0.425
201T | 0.501
NCI-H1915 | 0.328
HCC-827 | 0.239

Cell Line | relative viability
LXF-289 | 0.231
NCI-H23 | 0.798
NCI-H647 | 0.191
CAL-12T | 0.342
NCI-H1651 | 0.441
EPLC-272H | 0.411
NCI-H2228 | 0.456
NCI-H1355 | 0.728
NCI-H3122 | 0.901
NCI-H1437 | 0.419
NCI-H1755 | 0.423
NCI-H2023 | 0.565
HCC-15 | 0.666
PC-14 | 0.276
EKVX | 0.548
LC-2-ad | 0.582

same assay, conditions: first compound 0.4 µM

Cell Line | relative viability
BEN | 0.27
HARA | 0.313
NCI-H322M | 0.259
LCLC-97TM1 | 0.85
NCI-H2009 | 0.313
A-427 | 0.644
NCI-H441 | 0.551
NCI-H661 | 0.88
NCI-H1734 | 0.474
NCI-H460 | 0.613
NCI-H2347 | 0.355
SK-LU-1 | 0.181
NCI-H1395 | 0.374
201T | 0.587
HCC-827 | 0.291
LXF-289 | 0.247

Cell Line | relative viability
NCI-H23 | 0.73
NCI-H647 | 0.163
CAL-12T | 0.373
NCI-H1651 | 0.422
EPLC-272H | 0.489
NCI-H2228 | 0.455
NCI-H1355 | 0.678
NCI-H3122 | 0.707
NCI-H1437 | 0.438
NCI-H1755 | 0.445
NCI-H2023 | 0.608
HCC-15 | 0.646
PC-14 | 0.299
EKVX | 0.466
LC-2-ad | 0.497

same assay, conditions: first compound 1.265 µM

Cell Line | relative viability
BEN | 0.363
HARA | 0.243
SW 900 | 0.459
NCI-H322M | 0.269
LCLC-97TM1 | 0.911
NCI-H2009 | 0.283
A-427 | 0.632
NCI-H441 | 0.673
NCI-H661 | 0.835
NCI-H1734 | 0.447
NCI-H460 | 0.499
NCI-H2347 | 0.266
SK-LU-1 | 0.166
NCI-H1395 | 0.37
201T | 0.524
NCI-H1915 | 0.291
HCC-827 | 0.266

Cell Line | relative viability
LXF-289 | 0.245
NCI-H23 | 0.779
NCI-H647 | 0.169
CAL-12T | 0.387
NCI-H1651 | 0.395
EPLC-272H | 0.406
NCI-H2228 | 0.505
NCI-H1355 | 0.667
NCI-H3122 | 1.02
NCI-H1437 | 0.399
NCI-H1755 | 0.359
NCI-H2023 | 0.548
HCC-15 | 0.575
PC-14 | 0.206
EKVX | 0.37
LC-2-ad | 0.592

same assay, conditions: first compound 4 µM

Cell Line | relative viability
BEN | 0.374
HARA | 0.255
SW 900 | 0.408
NCI-H322M | 0.263
LCLC-97TM1 | 0.732
NCI-H2009 | 0.263
A-427 | 0.628
NCI-H441 | 0.445
NCI-H661 | 0.748
NCI-H1734 | 0.409
NCI-H460 | 0.468
NCI-H2347 | 0.317
SK-LU-1 | 0.167
NCI-H1395 | 0.407
201T | 0.483
NCI-H1915 | 0.25

Cell Line | relative viability
HCC-827 | 0.227
LXF-289 | 0.275
NCI-H23 | 0.728
NCI-H647 | 0.141
CAL-12T | 0.294
NCI-H1651 | 0.392
EPLC-272H | 0.382
NCI-H2228 | 0.377
NCI-H1355 | 0.638
NCI-H3122 | 0.869
NCI-H1437 | 0.351
NCI-H1755 | 0.393
NCI-H2023 | 0.388
HCC-15 | 0.391
PC-14 | 0.0944
EKVX | 0.46
